Data as given in US20240299414A1, “SUBCUTANEOUS OR INTRAMUSCULAR INJECTION FORMULATIONS OF ILOPROST” (EICOS SCIENCES, INC., priority 2020, published 2024).

Assays:
[1] = tested on: symptomatic Raynaud's Phenomenon attacks in subjects with Systemic Sclerosis; test: Multicenter double-blind randomized placebo-controlled study of intravenous iloprost, efficacy by ePRO diary; type: in vivo, human; conditions: for Subgroup comparison of prior vs after, LS mean difference in change (SE) of treatment difference: randomized prior to vs after 3 Jun. 2019
From the text: This was a multicenter, double-blind, randomized, placebo-controlled study to provide an initial evaluation of the effect of iloprost on the symptomatic relief of RP attacks in subjects with SSc. As a pilot study, it was not powered to provide a definitive estimate of the effect of iloprost. Importantly, this study tested the feasibility of collecting the study endpoints and logistics of study operations that included, among other things, an electronic patient-reported outcomes (ePRO) diary for the evaluation of subject response to the treatment, as well as the infusion workflow for this multiday treatment. Subjects were allowed to continue receiving stable standard of care therapies for the management of symptomatic RP (e.g., calcium channel blockers, angiotensin-converting enzyme inhibitors, statins, fluoxetine, and low-dose acetylsalicylic acid) or may have participated without the use of background standard of care therapies. The study consisted of an up to 30-day screening period during which subjects completed a daily ePRO diary to record information regarding all symptomatic RP attacks (e.g., severity of symptoms, duration, and hand function). […] The baseline ePRO diary completion period may have been extended beyond 10 days in order to accommodate the preferred Monday through Friday dosing schedule. The ePRO symptomatic RP attack data from this time period were used for the calculation of the baseline frequency of symptomatic RP attacks. […] Randomization was stratified based on the use of phosphodiesterase inhibitors at screening. Study drug administration began on Day 1, and subjects received study drug for 5 consecutive days (e.g., Monday through Friday) as an IV infusion over 6 hours each day via a peripheral line (NovaCath™ Integrated IV Catheter System) or a peripherally inserted central catheter using an infusion pump. […] On Day 1, study drug was initiated at a starting dose of 0.5 ng/kg/min, and dose increases occurred every 30 minutes (±5 minutes) in increments of 0.5 ng/kg/min up to 2.0 ng/kg/min or the individual tolerated dose. If dose-limiting adverse events (e.g., headache, flushing, jaw pain, myalgia, nausea, or vomiting) occurred that could not be tolerated by the subject, or if the subject experienced symptomatic hypotension, then the dose was reduced in a step-wise manner by 0.5 ng/kg/min every 30 minutes (±5 minutes) until a tolerated dose was determined or the infusion was stopped until the symptoms resolved at which point the study drug was reinitiated at a previously tolerated dose. If symptomatic hypotension or a dose-limiting adverse event occurred during administration of iloprost at the starting dose (i.e., 0.5 ng/kg/min), the infusion was reduced to 0.25 ng/kg/min. […] Blood pressure and heart rate were monitored 15 minutes (±5 minutes) prior to and after all dose changes. The maximum tolerated dose was maintained for the remaining 6-hour daily period. At the end of the 6-hour infusion period, the dose was stopped. Subjects were to be monitored for up to 1 hour after completion of study drug infusion (i.e., vital signs were obtained 15 minutes [+5 minutes] and 1 hour [+15 minutes] after completion of the infusion). […] Vital signs were measured prior to study drug administration and at 15 minutes (±5 minutes) prior to and after all dose changes during the infusion. Additionally, vital signs were monitored at 15 minutes (±5 minutes) and 1 hour (±15 minutes) after completion of the 6-hour infusion. Subjects were contacted via telephone on Day 8 to ensure they resumed completion of the daily ePRO diary; subjects completed the ePRO diary from Day 8 through Day 21. On Day 22, subjects returned to the clinic for post-treatment evaluations. A follow-up visit occurred 30 days after the last administration of study drug (Day 35). Symptomatic Raynaud's Phenomenon attacks: […] The attack was considered over when the color changed back to pre-attack color (normal) and the symptoms returned to the subject's pre-attack level. […]

[2] = Heat exposure study (sterilization cycles); type: physicochemical; conditions: pH about 8.0-8.1 versus about 7.0-7.2; light and heat exposure studies
Experimental: Approximately 200 mL of the prepared formulation was filtered through a Millipak 200, 0.22μ filter for light exposure study and heat exposure study (100 mL for each study).
Heat Exposure Study: Approximately 1.1 mL of formulation was placed each into 40 clean 2 cc vials and the vials were capped with 13 mm caps. One set of 20 vials were wrapped with autoclave tape, placed into an autoclave bag and labeled as B1. Another set of 20 vials were wrapped with autoclave tape, placed into an autoclave bag and labeled as B2. All vials were exposed through one sterilization cycle at 121° C. for approximately 30 minutes, then B1 vials were analyzed for pH and assayed by HPLC. The B2 vials were then exposed to a second sterilization cycle at ≥121° C. for ≥15 minutes. The B2 vials were analyzed for pH and assayed by HPLC for iloprost and impurities.

[3] = baseline to double-blind endpoint
[4] = subgroup randomized after 3 Jun. 2019, N = 9
[5] = subgroup randomized prior to 3 Jun. 2019, n = 8

SMILES: CC#CCC(C)[C@H](O)/C=C/[C@@H]1[C@H]2C/C(=C/CCCC(=O)O)C[C@H]2C[C@H]1O (stereo partly drawn) [Iloprost, (5E)-5-[(3aS,4R,5R,6aS)-5-hydroxy-4-[(E,3S)-3-hydroxy-4-methyloct-1-en-6-ynyl]-3,3a,4,5,6,6a-hexahydro-1H-pentalen-2-ylidene]pentanoic acid]
- Average overall severity of symptomatic RP attacks, LS mean difference in change vs placebo (SE) ([1]; 11-point NRS): −0.47 (0.604)
- Average overall severity of symptomatic RP attacks, Double-blind endpoint, Mean (SD) ([1]; 11-point NRS, Days 8 to 21, N = 17): 3.39 (2.169)
- Change from baseline in average overall severity of symptomatic RP attacks, LS mean (SE) ([1]; 11-point NRS, N = 17): −2.12 (0.439)
- Average overall severity of symptomatic RP attacks, Baseline, Mean (SD) ([1]; 11-point NRS, before treatment, N = 17): 5.30 (1.818)
- Change from baseline in weekly frequency of symptomatic RP attacks, LS mean (SE) ([1]; ANCOVA, baseline to double-blind endpoint, N = 17): −15.09 (2.961)
- Weekly frequency of symptomatic RP attacks, LS mean difference in change vs placebo (SE) ([1]; ANCOVA, iloprost vs placebo, N = 17 per group): −0.77 (4.047)
- Average weekly duration of symptomatic RP attacks, Double-blind endpoint, Mean (SD) ([1]; Days 8 to 21, N = 17): 345.82 (402.713) minutes
- Weekly frequency of symptomatic RP attacks, Double-blind endpoint, Mean (SD) ([1]; Days 8 to 21 after IV infusion 6 h/day for 5 days, up to 2.0 ng/kg/min, N = 17): 23.57 (14.578)
- Change from baseline in average weekly duration of symptomatic RP attacks, LS mean (SE) ([1]; N = 17): −267.49 (78.273) minutes
- Difference in change in weekly frequency of symptomatic RP attacks compared to placebo, significance ([1]; all analytical measures): not statistically significant
- Weekly frequency of symptomatic RP attacks, Baseline, Mean (SD) ([1]; baseline ePRO diary period (10 to 25 days) before treatment, N = 17): 37.05 (18.643)
- Change in average Raynaud's Condition Score, difference compared to placebo [1, 3]: not statistically significant
- Change in average worst symptoms (pain, numbness, tingling, discomfort) associated with symptomatic RP, difference compared to placebo [1, 3]: not statistically significant
- Subject assessment of overall improvement using PGI-S and PGI-C, difference compared to placebo [1, 3]: not statistically significant
- Average weekly duration of symptomatic RP attacks, Baseline, Mean (SD) ([1]; before treatment, N = 17): 586.97 (584.577) minutes
- Average weekly duration of symptomatic RP attacks, LS mean difference in change vs placebo (SE) ([1]; iloprost vs placebo): −83.89 (107.728) minutes
- Subgroup comparison of prior vs after, LS mean difference in change (SE) of treatment difference [1]: −6.91 (8.121)
- Subgroup comparison of prior vs after, LS mean difference in change (SE) of treatment difference ([1]; listed as iloprost): -6.91 (8.121)
- Weekly frequency of symptomatic RP attacks, LS mean difference in change vs placebo (SE) ([1]; subgroup randomized after 3 Jun. 2019): 2.04 (5.453)
- Change from baseline in weekly frequency of symptomatic RP attacks, LS mean (SE) [1, 4]: −15.38 (4.082)
- Weekly frequency of symptomatic RP attacks, Double-blind endpoint, Mean (SD) [1, 4]: 23.73 (17.337)
- Weekly frequency of symptomatic RP attacks, Baseline, Mean (SD) ([1]; subgroup randomized after 3 Jun. 2019, N = 9, before treatment): 37.23 (19.269)
- Weekly frequency of symptomatic RP attacks, LS mean difference in change vs placebo (SE) ([1]; subgroup randomized prior to 3 Jun. 2019): −4.87 (6.074)
- Weekly frequency of symptomatic RP attacks, LS mean difference in change vs placebo (SE) ([1]; subgroup randomized prior to 3 Jun. 2019, listed as iloprost): -4.87 (6.074)
- Change from baseline in weekly frequency of symptomatic RP attacks, LS mean (SE) [1, 5]: −14.83 (4.180)
- Weekly frequency of symptomatic RP attacks, Double-blind endpoint, Mean (SD) [1, 5]: 23.39 (11.923)
- Weekly frequency of symptomatic RP attacks, Baseline, Mean (SD) ([1]; subgroup randomized prior to 3 Jun. 2019, n = 8, before treatment): 36.85 (19.235)
- stability of iloprost versus pH [2]: more stable at higher pH of about 8.0-8.1
